# Measurements reported in US9486398B2, “Composition” (J-OIL MILLS, INC., priority 2012, dated 2016).
# “Also recorded” adds a separate entry of the source.
# Tested on: hairless mice Hos:HR1
# Test: Stratum corneum water-retaining function (moisture in the keratin, corneometer, back skin)
# Format: in vivo
# Conditions: intragastric once a day for 28 days, menaquinone-7 10 mg/kg, collagen hydrolysate 80 mg/kg, soyasapogenol 50 mg/kg
# Method: In addition to the reference diet, the test substances shown in Table 6 were administered to the study groups in Examples and Comparative Examples. By dissolving the test substances in a 0.5% carboxymethyl cellulose sodium solution (hereinafter referred to as CMC-Na solution), the composition (skin function improving agent) was prepared.
# Forty two hairless mice Hos:HR1 (male, 5-week old) were prepared. Through the 1-week acclimation period and the test period, the mice were freely fed a reference diet (product name: CRF-1, manufactured by Oriental Yeast Co., Ltd.) and water. The insolation condition was set to day and night every 12 hours. After the acclimation period, grouping of 6 mice/group was performed so that the body weight between groups was homogenous.
# Continuous and forced intragastric administration of the above composition was performed to the mice once a day for 28 days using a stomach tube. The reference diet and 0.05 mL per 10 g of body weight of a 0.5% CMC-Na solution were administered to the control group.
# The keratin usually contains 20% to 30% of water. […] By measuring the moisture in the keratin, the stratum corneum water-retaining function (i.e., skin moisture-retaining function) of a skin function improving agent can be evaluated. […]
structure (smiles),measurement,setting,value
"CC(C)=CCC/C(C)=C/CC/C(C)=C/CC/C(C)=C/CC/C(C)=C/CC/C(C)=C/CC/C(C)=C/CC1=C(C)C(=O)c2ccccc2C1=O [Comparative Example 1, menaquinone-7]","keratin moisture fluctuation value (moisture in the keratin, day 28 minus day before administration)",,no function of keratin water retention; also recorded: no stratum corneum water-retaining function
same,"keratin moisture fluctuation value (moisture in the keratin, day 28 minus day before administration)",listed as menaquinone-7,does not exert the keratin water-retaining function; also recorded: does not exert the stratum corneum water-retaining function
